Test results published in patent publication US9751869B2, “LXR modulators” (BRISTOL-MYERS SQUIBB COMPANY, priority 2013, dated 2017).

Biological target: T1, LXRβ (Homo sapiens, UniProt P55055)
T1 construct: Co-transfection expression plasmids, comprising full-length LXRα (pCMX-h LXRα or LXRβ (pCMX-hLXRβ)); expressed in transfected cells; host or cells: CV-1 African green monkey kidney cells, transient transfection with pCMX-hLXRβ
T1 sequence (P55055 1-460): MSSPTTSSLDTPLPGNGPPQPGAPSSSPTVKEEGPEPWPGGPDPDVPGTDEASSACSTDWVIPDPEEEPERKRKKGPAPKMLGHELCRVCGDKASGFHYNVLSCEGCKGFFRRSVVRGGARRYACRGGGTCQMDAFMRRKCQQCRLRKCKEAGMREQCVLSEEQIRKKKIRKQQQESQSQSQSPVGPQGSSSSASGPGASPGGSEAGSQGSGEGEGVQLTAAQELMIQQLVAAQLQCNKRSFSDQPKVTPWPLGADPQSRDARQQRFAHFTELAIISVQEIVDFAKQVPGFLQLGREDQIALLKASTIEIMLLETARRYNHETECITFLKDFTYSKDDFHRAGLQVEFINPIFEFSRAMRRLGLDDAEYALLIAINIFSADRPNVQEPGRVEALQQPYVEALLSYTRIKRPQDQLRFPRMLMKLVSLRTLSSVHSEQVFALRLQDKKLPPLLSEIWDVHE
T1 sequence (P19793 1-462 partner): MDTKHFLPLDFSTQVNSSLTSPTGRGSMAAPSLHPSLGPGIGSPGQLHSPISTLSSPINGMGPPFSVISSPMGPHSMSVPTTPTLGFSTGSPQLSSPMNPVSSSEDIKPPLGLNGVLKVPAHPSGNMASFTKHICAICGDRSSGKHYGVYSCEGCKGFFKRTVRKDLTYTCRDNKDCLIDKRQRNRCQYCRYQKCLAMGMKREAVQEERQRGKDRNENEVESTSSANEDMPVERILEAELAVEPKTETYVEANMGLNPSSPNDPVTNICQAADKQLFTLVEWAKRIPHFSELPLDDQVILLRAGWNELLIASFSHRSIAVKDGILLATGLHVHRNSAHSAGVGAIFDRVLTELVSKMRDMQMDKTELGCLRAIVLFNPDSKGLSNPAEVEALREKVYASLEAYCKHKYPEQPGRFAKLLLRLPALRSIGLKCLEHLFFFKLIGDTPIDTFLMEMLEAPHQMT
Assay: LXR/LXRE co-transfection assay (luciferase reporter) in CV-1 cells, LXRβ
Type: cell-based
Conditions: for EC50: CV-1 cells transfected with pCMX-hLXRβ and LXREx1-Tk-Luciferase, 20 hours incubation, read-out: LXRbeta agonism EC50; for Emax: CV-1 cells, relative to maximum response of high control N-(3-((4-fluorophenyl)-(naphthalene-2-sulfonyl)amino)propyl)-2,2-dimethylpropionamide, read-out: LXRbeta % EFFICACY
Method in brief: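 CV-1 cells transiently co-transfected with full-length human LXRβ, LXRE-Tk-luciferase reporter and β-galactosidase control, then exposed to compound (≤0.5% DMSO) for 20 h at 37 °C before luminescence read. EC50 from 10-point, half-log dose curves; efficacy relative to the sulfonamide high control, means of 2–3 experiments.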

Row | Compound | EC50 [nM] | Emax [%]
1 | CCOc1cc(C(F)(F)F)nn1-c1ccc(-c2cc(F)c(CO)c(S(C)(=O)=O)c2)cc1-c1nc(C)oc1-c1ccc(OC(F)(F)F)cc1 [Example 382, (4′-(5-ethoxy-3-(trifluoromethyl)-1H-pyrazol-1-yl)-3-fluoro-3′-(2-methyl-5-(4-(trifluoromethoxy)phenyl)oxazol-4-yl)-5-(methylsulfonyl)biphenyl-4-yl)methanol] | 629 | 50
2 | CC(C)c1nc(-c2cc(-c3cccc(S(C)(=O)=O)c3)ccc2-n2ccc(C(F)(F)F)n2)c(-c2ccc(OC(F)(F)F)cc2)o1 [Example 399, 2-isopropyl-4-(3′-(methylsulfonyl)-4-(3-(trifluoromethyl)-1H-pyrazol-1-yl)biphenyl-3-yl)-5-(4-(trifluoromethoxy)phenyl)oxazole] | 200 | 60
3 | Cc1nc(-c2cc(-c3cccc(S(C)(=O)=O)c3)ccc2-n2ccc(C(F)(F)F)n2)c(-c2ccc(OC(F)F)c(Cl)c2)o1 [Example 397, 5-(3-chloro-4-(difluoromethoxy)phenyl)-2-methyl-4-(3′-(methylsulfonyl)-4-(3-(trifluoromethyl)-1H-pyrazol-1-yl)biphenyl-3-yl)oxazole] | 194 | 68
4 | Cc1nc(-c2ccc3c(c2)OC(F)(F)O3)c(-c2cc(-c3cc(F)c(CO)c(S(C)(=O)=O)c3)ccc2-c2cc(C(F)(F)C(=O)N(C)C)nn2C)o1 [Example 80, 2-(5-(3-(4-(2,2-difluorobenzo[d][1,3]dioxol-5-yl)-2-methyloxazol-5-yl)-3′-fluoro-4′-(hydroxymethyl)-5′-(methylsulfonyl)biphenyl-4-yl)-1-methyl-1H-pyrazol-3-yl)-2,2-difluoro-N,N-dimethylacetamide] | 131 | 58
5 | Cn1nc(C(F)(F)F)cc1-c1ccc(-c2cccc(C(C)(C)C(N)=O)c2)cc1-n1nncc1-c1ccc(OC(F)(F)F)cc1 [Example 12] | 74 | 81
6 | CS(=O)(=O)c1cccc(-c2ccc(-n3ccc(C(N)=O)n3)c(-c3oc(C4CC4)nc3-c3ccc(OC(F)(F)F)cc3)c2)c1 [Example 361, 1-(3-(2-cyclopropyl-4-(4-(trifluoromethoxy)phenyl)oxazol-5-yl)-3′-(methylsulfonyl)-[1,1′-biphenyl]-4-yl)-1H-pyrazole-3-carboxamide] | 652 | 12
7 | Cc1nc(-c2ccc3c(c2)OC(F)(F)O3)c(-c2cc(-c3cc(F)c(CO)c(S(C)(=O)=O)c3)ccc2-c2cc(CC(N)=O)nn2C)o1 [Example 61, 2-(5-(3-(4-(2,2-difluorobenzo[d][1,3]dioxol-5-yl)-2-methyloxazol-5-yl)-3′-fluoro-4′-(hydroxymethyl)-5′-(methylsulfonyl)-[1,1′-biphenyl]-4-yl)-1-methyl-1H-pyrazol-3-yl)acetamide] | 592 | 40
8 | Cc1nc(-c2ccc(OC(F)(F)F)cc2)c(-c2cc(-c3cccc(C(C)(C)C(N)=O)c3)ccc2-n2ccc(C(=O)NCC(F)(F)F)n2)o1 [Example 366] | 293 | 28
9 | Cc1nc(-c2ccc3c(c2)OC(F)(F)O3)c(-c2cc(-c3cc(F)c(CO)c(S(C)(=O)=O)c3)ccc2-c2cc(C(F)(F)C(=O)NCC(F)(F)F)nn2C)o1 [Example 90, 2-(5-(3-(4-(2,2-difluorobenzo[d][1,3]dioxol-5-yl)-2-methyloxazol-5-yl)-3′-fluoro-4′-(hydroxymethyl)-5′-(methylsulfonyl)biphenyl-4-yl)-1-methyl-1H-pyrazol-3-yl)-2,2-difluoro-N-(2,2,2-trifluoroethyl)acetamide] | 58 | 34
10 | Cc1nc(-c2ccc3c(c2)OC(F)(F)O3)c(-c2cc(-c3cc(F)c(CO)c(S(C)(=O)=O)c3)ccc2-c2cc(C(=O)NC(C)(C)C)nn2C)o1 [Example 114, N-(tert-butyl)-5-(3-(4-(2,2-difluorobenzo[d][1,3]dioxol-5-yl)-2-methyloxazol-5-yl)-3′-fluoro-4′-(hydroxymethyl)-5′-(methylsulfonyl)-[1,1′-biphenyl]-4-yl)-1-methyl-1H-pyrazole-3-carboxamide] | 273 | 28
11 | Cc1nc(-c2ccc3c(c2)OC(F)(F)O3)c(-c2cc(-c3cc(F)c(CO)c(S(C)(=O)=O)c3)ccc2-c2cc(C(F)(F)CO)nn2C)o1 [Example 105, 2-(5-(3-(4-(2,2-difluorobenzo[d][1,3]dioxol-5-yl)-2-methyloxazol-5-yl)-3′-fluoro-4′-(hydroxymethyl)-5′-(methylsulfonyl)-[1,1′-biphenyl]-4-yl)-1-methyl-1H-pyrazol-3-yl)-2,2-difluoroethanol] | 74 | 66
12 | Cc1nc(-c2cc(-c3cc(F)c(CO)c(S(C)(=O)=O)c3)ccc2-n2nc(C(F)(F)F)cc2C2CC2)c(-c2ccc(OC(F)(F)F)cc2)o1 [Example 415, (4′-(5-cyclopropyl-3-(trifluoromethyl)-1H-pyrazol-1-yl)-3-fluoro-3′-(2-methyl-5-(4-(trifluoromethoxy)phenyl)oxazol-4-yl)-5-(methylsulfonyl)biphenyl-4-yl)methanol] | 458 | 37

The next molecules have a lower EC50 than those just listed; values first:

Row | EC50 [nM] | Emax [%] | Compound
13 | 48 | 82 | Cc1nc(-c2ccc3c(c2)OC(F)(F)O3)c(-c2cc(-c3cc(F)c(CO)c(S(C)(=O)=O)c3)ccc2-c2cc(C(C)(C)C#N)nn2C)o1 [Example 97, 2-(5-(3-(4-(2,2-difluorobenzo[d][1,3]dioxol-5-yl)-2-methyloxazol-5-yl)-3′-fluoro-4′-(hydroxymethyl)-5′-(methylsulfonyl)biphenyl-4-yl)-1-methyl-1H-pyrazol-3-yl)-2-methylpropanenitrile]
14 | 38 | 63 | CC(C)c1nc(-c2cc(-c3cc(F)c(CO)c(S(C)(=O)=O)c3)ccc2-n2ccc(C(F)(F)F)n2)c(-c2ccc(OC(F)(F)F)cc2)o1 [Example 398, (3-fluoro-3′-(2-isopropyl-5-(4-(trifluoromethoxy)phenyl)oxazol-4-yl)-5-(methylsulfonyl)-4′-(3-(trifluoromethyl)-1H-pyrazol-1-yl)biphenyl-4-yl)methanol]
15 | 32 | 99 | Cn1nc(C(F)(F)F)cc1-c1ccc(-c2cccc(S(C)(=O)=O)c2)cc1-n1nncc1-c1ccc(OC(F)(F)F)cc1 [Example 14, 1-{3′-(methylsulfonyl)-4-[1-methyl-3-(trifluoromethyl)-1H-pyrazol-5-yl]biphenyl-3-yl}-5-{4-[(trifluoromethyl)oxy]phenyl}-1H-1,2,3-triazole]
16 | 27 | 75 | Cc1nc(-c2cc(-c3cccc(S(C)(=O)=O)c3)ccc2-n2cc(Cl)c(C(F)(F)F)n2)c(-c2ccc(OC(F)(F)F)cc2)o1 [Example 310, 4-(4-(4-chloro-3-(trifluoromethyl)-1H-pyrazol-1-yl)-3′-(methylsulfonyl)-[1,1′-biphenyl]-3-yl)-2-methyl-5-(4-(trifluoromethoxy)phenyl)oxazole]
17 | 22 | 82 | Cn1nc(C(C)(F)F)cc1-c1ccc(-c2cc(F)c(CO)c(S(C)(=O)=O)c2)cc1-n1nncc1-c1ccc(OC(F)(F)F)cc1 [Example 21, {4′-[3-(1,1-difluoroethyl)-1-methyl-1H-pyrazol-5-yl]-3-fluoro-5-(methylsulfonyl)-3′-(5-{4-[(trifluoromethyl)oxy]phenyl}-1H-1,2,3-triazol-1-yl)biphenyl-4-yl}methanol]
18 | 10 | 101 | Cc1nc(-c2ccc(OC(F)F)nc2)c(-c2cc(-c3cc(F)c(CO)c(S(C)(=O)=O)c3)ccc2-n2ccc(C(F)(F)F)n2)o1 [Example 354, (3′-(4-(6-(difluoromethoxy)pyridin-3-yl)-2-methyloxazol-5-yl)-3-fluoro-5-(methylsulfonyl)-4′-(3-(trifluoromethyl)-1H-pyrazol-1-yl)biphenyl-4-yl)methanol]
19 | 4 | 98 | Cc1nc(-c2cc(F)c(OC(F)F)c(F)c2)c(-c2cc(-c3cc(F)c(CO)c(S(C)(=O)=O)c3)ccc2-n2cc(Cl)c(C(F)(F)F)n2)o1 [Example 422, (4′-(4-chloro-3-(trifluoromethyl)-1H-pyrazol-1-yl)-3′-(4-(4-(difluoromethoxy)-3,5-difluorophenyl)-2-methyloxazol-5-yl)-3-fluoro-5-(methylsulfonyl)-[1,1′-biphenyl]-4-yl)methanol]
